“Also recorded” adds a separate entry of the source.

For one data set, the system named is GMC101 C. elegans strain. Kind of data set: Paralysis assay in GMC101 C. elegans model of Alzheimer's disease. It is filed as in vivo. As to conditions: for paralysis caused by Aβ: single agent, FIG. 4 (alanine 1-8 mM), FIG. 5 (KIC 2-32 mM); for GMC101 paralysis: 4 mM, FIG. 3. As for the experimental part: To investigate the effects of small molecules in a C. elegans model of Alzheimer's disease, the GMC101 C. elegans strain, developed by Gawain McColl at the University of Melbourne, Australia, was used. The GMC101 C. elegans strain expresses the full length human amyloid beta 1-42 protein in the body wall muscle cells, leading to a fully penetrant age-progressive paralysis. These worms were first age-synchronized by performing an egg prep (mixed <100 gravid worms in 70 μl M9 buffer, 25 μl bleach and 5 μl 10 N NaOH). […] All worms were transferred to fresh plates on Day 5.

The subject of data set [1] is differentiated PC-12 cells. Kind of data set: Amyloid-beta induced cell death in differentiated PC-12 cells. It is filed as cell-based. As to conditions: 200 μM, pretreated 2 hours before Aβ42 or Aβ25-35; 24-hour incubation; control cells 48.5±1.8%; FIG. 16. The source says: Overnight after seeding, cells were differentiated with NGF in 0.5% FCS, RPMI 1640 medium for 7 days.

On to `CCC(=O)C(=O)O` [α-KB, α-ketobutyrate], for which the Aβ caused paralysis result in the data set with GMC101 C. elegans strain (about 2 mM, FIG. 2) is listed as “can delay Aβ caused paralysis”.

As to `CC(C)CC(=O)C(=O)O` [KIC, α-ketoisocaproate], the “beneficial effect in GMC101 (paralysis)” value in the data set with GMC101 C. elegans strain (16 mM KIC alone) is “not observed to exhibit beneficial effects; also recorded: does not exert a beneficial effect”. The “paralysis caused by Aβ” value with GMC101 C. elegans strain is on record as “reduces paralysis caused by Aβ”.

Consider `CC[C@H](O)C(=O)O` [2-HB, 2-hydroxybutyrate], for which, in the data set on GMC101 C. elegans strain, the GMC101 paralysis result was “can also delay GMC101 paralysis”.

In the case of `CC(C)C(=O)C(=O)O` [KIV, α-ketoisovalerate], the GMC101 health span result in the data set on GMC101 C. elegans strain (8 mM, FIG. 6) was “can extend GMC101 health span”.

For `O=C(O)CCC(=O)C(=O)O` [α-KG, α-ketoglutarate], in the data set with GMC101 C. elegans strain (2 mM, FIG. 1), the “health span of GMC101 C. elegans strain” value is “can extend the health span”. In addition, the “delay of paralysis compared to vehicle treatment” value in the data set on GMC101 C. elegans strain (8 mM on NGM plates, worms shifted to 25° C.) was 22%.

As for `C[C@H](N)C(=O)O` [alanine, L-alanine], the “health span of GMC101” value is given as “can extend health span of GMC101” in the data set with GMC101 C. elegans strain (2 mM alanine alone, FIG. 9); “can extend health span of GMC101” with GMC101 C. elegans strain (4 mM alanine alone, FIG. 10); “can extend health span of GMC101” in the data set with GMC101 C. elegans strain (8 mM alanine alone, FIG. 11). The “paralysis caused by Aβ” value with GMC101 C. elegans strain is reported as “can reduce paralysis caused by Aβ”.

For `CC(O)CC(=O)O` (stereo not shown) [3-HB, 3-hydroxybutyrate, reference compound], in the data set on GMC101 C. elegans strain, the GMC101 paralysis result was “delay in paralysis is not observed”.

For the compound `CCCCCCCCOC(=O)C(=O)CCC(=O)O` [octyl α-KG, octyl α-ketoglutarate], in data set [1], the “cells remaining alive (viable)” value is listed as “about 73±2.2%”.
